Experiments:
[1] = tested on: MMP-9; assay: Lung tissue study: MMP-9 released by human lung tissue in vitro (ELISA); type: cell-based; details: 24 hours; for MMP-9 % of IL-1: 100 U/ml IL-1 stimulated; for MMP-9 % of control: unstimulated fragments
Method: (§1) This study was done to assess the effects of doxycycline on the release of matrix metalloproteinases by human lung tissue in vitro.
(§2) On the following day, 2-3 fragments (total weight 50 mg) were placed in 0.8 ml of culture buffer and 0.1 ml of doxycycline (to give a final concentration of 10^−4-10^−8M) or a buffer control was added.
(§3) After one hours incubation at 37° C., the fragments were treated with either 0.1 ml of either a buffer control (unstimulated fragments) or 1000 U/ml interleukin-1 (final concentration of 100 U/ml IL-1). The fragments were then incubated for 24 hours and the supernatant recovered; the tissue was weighed and stored at −70° C.
(§4) The MMPs and TIMPs released into the supematant were measured using commercial ELISAs (Amersham); values were expressed as ng of MMP/TIMP per mg of lung tissue.

[2] = tested on: TIMP-1; assay: Lung tissue study: TIMP-1 released by human lung tissue in vitro (ELISA); type: cell-based; details: 24 hours; for TIMP-1 % of IL-1: 100 U/ml IL-1 stimulated; for TIMP-1 % of control: unstimulated fragments
Method: as §1, §2, §3, §4

[3] = oral route; cited from earlier work
[4] = tested on: MMP-2; assay: Lung tissue study: MMP-2 released by human lung tissue in vitro (ELISA); type: cell-based; details: 24 hours; for MMP-2 % of IL-1: 100 U/ml IL-1 stimulated; for MMP-2 % of control: unstimulated fragments
Method: as §1, §2, §3, §4
MMP-2 levels are analysed by Elisa plates (Code No. RPN2617) from Amersham Pharmecia Biotech UK Limited, Amersham Place, Little Chalfont, BUCKS HP7 9NA.
(§5) The Elisa is run as per manufacturer's instructions.
This Elisa is specific for proMMP-2; recognising free proMMP-2 and MMP-2 complexed to TIMP-2, but not the active form of MMP-2. No cross-reactivity with MMP-1, 3, 7, 8, 9 and MT1-MMP.

[5] = route of administration that avoids first-pass metabolism; cited from earlier work
[6] = tested on: TIMP-1; assay: Human study in COPD subjects: TIMP-1 levels (ELISA); type: in vivo; details: for TIMP-1 % of control: capsules 50, 100, 200 mg ascending, 3 days each, 4-day wash out
Method: (§6) This was an open-label, ascending dose, cross-over study. Suitable subjects with chronic obstructive pulmonary disease (COPD) had their respiratory function assessed at baseline and provided sputum and blood for MMP and doxycycline levels. They then received 50 mg, 100 mg and 200 mg of doxycycline capsules for a period of 3 days in ascending order. At the end of each treatment period a further assessment of respiratory function was performed, and a sputum and blood sample was analysed for MMP, TIMP-1 and doxycycline levels. There was a 4-day wash out period between each treatment period of the study. The MMPs and TIMPs released were measured using commercial ELISAs as detailed above for the lung tissue study.

[7] = tested on: MMP-9; assay: Human study in COPD subjects: MMP-9 levels (ELISA); type: in vivo; details: for MMP-9 % of control: capsules 50, 100, 200 mg ascending, 3 days each, 4-day wash out
Method: as §6

[8] = tested on: MMP-1; assay: Lung tissue study: MMP-1 released by human lung tissue in vitro (ELISA); type: cell-based; details: 24 hours; for MMP-1 % of IL-1: 100 U/ml IL-1 stimulated; for MMP-1 % of control: unstimulated fragments
Method: as §1, §2, §3, §4
MMP-1 levels are analysed by Elisa plates (Code No. RPN2610) from Amersham Pharmacia Biotech UK Limited, Amersham Place, Little Chalfont, BUCKS HP7 9NA.
as §5
This Elisa is specific for total MMP-1; recognising pro MMP-1, active MMP-1 and MMP-1/TIMP-1 complex.

[9] = Mean of study days 4, 8, 11, 15, 18, COPD subjects

## C[C@H]1c2cccc(O)c2C(=O)C2=C(O)[C@]3(O)C(=O)C(C(N)=O)=C(O)[C@@H](N(C)C)[C@@H]3[C@@H](O)[C@@H]21 [doxycycline]
[1]; 10^-4 M
  MMP-9 % of IL-1: 51.04%
  MMP-9 % of control: 39.36%
[1]; 10^-6 M
  MMP-9 % of IL-1: 99.29%
  MMP-9 % of control: 116.84%
[1]; 10^-8 M
  MMP-9 % of IL-1: 127.04%
  MMP-9 % of control: 113.57%
[2]; 10^-4 M
  TIMP-1 % of IL-1: 75.47%
  TIMP-1 % of control: 44.49%
[2]; 10^-6 M
  TIMP-1 % of IL-1: 508.92%
  TIMP-1 % of control: 182.40%
[2]; 10^-8 M
  TIMP-1 % of IL-1: 461.92%
  TIMP-1 % of control: 172.02%
[3]
  protein binding: very highly protein-bound
[4]; 10^-4 M
  MMP-2 % of IL-1: 49.23%
  MMP-2 % of control: 34.34%
[4]; 10^-6 M
  MMP-2 % of IL-1: 86.86%
  MMP-2 % of control: 219.33%
[4]; 10^-8 M
  MMP-2 % of IL-1: 95.75%
  MMP-2 % of control: 101.47%
[5]
  lung concentration relative to the level in plasma: up to 10 times
[6]; Day of Study 4, COPD subjects
  TIMP-1 % of control: 116.24%
[6]; Day of Study 15, COPD subjects
  TIMP-1 % of control: 974.24%
[6]; [9]
  TIMP-1 % of control, Mean: 978.67%
[6]; human patient study
  increase in TIMP-1: 10 fold
[6]; repeated dosing at 100 mg once daily
  upregulation of TIMP-1 in COPD sputum, % of untreated levels: about 1000%
[7]; Day of Study 4, COPD subjects
  MMP-9 % of control: 39.43%
[7]; Day of Study 8, COPD subjects
  MMP-9 % of control: 12.85%
[7]; Day of Study 11, COPD subjects
  MMP-9 % of control: 29.17%
[7]; Day of Study 15, COPD subjects
  MMP-9 % of control: 22.41%
[7]; Day of Study 18, COPD subjects
  MMP-9 % of control: 29.03%
[7]; [9]
  MMP-9 % of control, Mean: 26.58%
[7]; human patient study
  reduction in MMP-9 activity: 73%
[8]; 10^-4 M
  MMP-1 % of IL-1: 14.75%
  MMP-1 % of control: 24.05%
[8]; 10^-6 M
  MMP-1 % of IL-1: 61.47%
  MMP-1 % of control: 84.10%
[8]; 10^-8 M
  MMP-1 % of IL-1: 51.87%
  MMP-1 % of control: 76.50%

— patent publication US20030099600A1, “Metalloproteinase inhibitors for the treatment of respiratory diseases” (priority 2000, published 2003)
